Here are results for 3 compounds from paper PMC9062515, “Identification of the Biosynthetic Pathway of Glycine Betaine That Is Responsible for Salinity Tolerance in Halophilic Thioalkalivibrio versutus D301” (Frontiers in Microbiology, 2022).

In assay [1] the target is T1, TvGMT (Thioalkalivibrio versutus, UniProt A0A0G3G560).
T1 construct: gene TVD_00875; His-tagged, pET-28a(+), E. coli BL21(DE3), Ni Sepharose; calculated 32 kDa
The assay is described as follows: methyltransferase assay, HPLC of product. Format: biochemical. The note with it: 250 mM glycine, 10 mM SAM, MgCl2, pH 7.5, 37 °C.

Assay [2] deals with T2, TvSDMT (Thioalkalivibrio versutus, UniProt A0A0G3G397).
T2 construct: gene TVD_00880; His-tagged, pET-28a(+), E. coli BL21(DE3), Ni Sepharose; calculated 32 kDa
T2 sequence (A0A0G3G397 1-282): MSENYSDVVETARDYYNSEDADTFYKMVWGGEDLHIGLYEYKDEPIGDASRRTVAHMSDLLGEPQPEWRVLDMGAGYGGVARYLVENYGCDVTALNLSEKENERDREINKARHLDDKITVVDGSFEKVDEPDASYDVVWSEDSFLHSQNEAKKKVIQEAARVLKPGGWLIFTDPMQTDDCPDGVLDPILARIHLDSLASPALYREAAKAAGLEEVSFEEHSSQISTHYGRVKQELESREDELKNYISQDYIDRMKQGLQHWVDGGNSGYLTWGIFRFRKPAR
Briefly: methyltransferase assay, HPLC of product. The class given is biochemical. The following applies: 10 mM SAM, MgCl2, pH 7.5, 37 °C.

T1 sequence (A0A0G3G560 1-272): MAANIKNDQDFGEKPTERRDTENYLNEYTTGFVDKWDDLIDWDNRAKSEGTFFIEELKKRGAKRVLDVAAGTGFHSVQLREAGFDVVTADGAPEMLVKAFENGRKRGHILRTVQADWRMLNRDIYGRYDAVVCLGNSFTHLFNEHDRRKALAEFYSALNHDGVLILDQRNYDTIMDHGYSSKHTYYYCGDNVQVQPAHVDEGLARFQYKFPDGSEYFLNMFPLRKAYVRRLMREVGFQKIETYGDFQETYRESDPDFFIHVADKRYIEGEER

As to `NCC(=O)O` [glycine], the “methyltransferase assay, HPLC of product” value in assay [1] is reported as “The purified TVD_RS00875 converted glycine to sarcosine with a relatively high specific activity”.
Consider `CN(C)CC(=O)O` [dimethylglycine], for which, in assay [2] (50 mM dimethylglycine), the “methyltransferase assay, HPLC of product” value was “exhibited activities on both sarcosine and dimethylglycine, showing a higher specific activity toward dimethylglycine”.
Turning to `CNCC(=O)O` [sarcosine], the “methyltransferase assay, HPLC of product” value in assay [2] (60 mM sarcosine) was “TvSDMT, exhibited activities on both sarcosine and dimethylglycine”.
